According to patent US12252524B2, “GIP/GLP1 co-agonist compounds” (Eli Lilly and Company, priority 2018, dated 2025):
Numbered stars: 1 amine (or outer) side, 2 acyl side, 3 side chain; on linkers, the order of the positions; unused ones are H or OH. Square brackets hold non-standard residues; d marks the D form. Side chains are listed from the residue outwards. Peptide text beside a SMILES is read from it. * marks the point of attachment. C20 diacid = O=C(O)CCCCCCCCCCCCCCCCCCC(=O)*; γGlu = O=C(O)[C@H](CCC(=O)[*:2])N[*:1]; αMeL = CC(C)C[C@](C)(N)C(=O)O; AEEA = NCCOCCOCC(=O)O; Aib = CC(C)(N)C(=O)O

Key:
[1] = molecular target: T1, human GIP receptor (Homo sapiens, UniProt P48546); assay: [125I]-GIP binding (SPA), human GIP receptor; settings: read-out: hGIPR Ki, nM (SEM, n)
T1 construct: expressed in transfected cells; crude membranes
T1 sequence (P48546 22-466): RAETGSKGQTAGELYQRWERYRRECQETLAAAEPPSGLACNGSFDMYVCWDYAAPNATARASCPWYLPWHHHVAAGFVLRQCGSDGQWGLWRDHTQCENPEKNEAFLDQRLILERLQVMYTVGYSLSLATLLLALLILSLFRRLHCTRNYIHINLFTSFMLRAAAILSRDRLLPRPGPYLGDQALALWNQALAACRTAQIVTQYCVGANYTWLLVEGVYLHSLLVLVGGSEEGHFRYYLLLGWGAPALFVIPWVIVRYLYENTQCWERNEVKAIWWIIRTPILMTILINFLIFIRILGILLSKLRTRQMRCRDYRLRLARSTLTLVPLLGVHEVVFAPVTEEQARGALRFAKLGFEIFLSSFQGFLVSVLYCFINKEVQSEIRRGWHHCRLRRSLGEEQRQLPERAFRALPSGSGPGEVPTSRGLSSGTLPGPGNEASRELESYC

[2] = molecular target: T2, gastric inhibitory peptide receptor (GIPR) (Homo sapiens, UniProt P48546); assay: cAMP pharmacological functional assay in presence of casein, hGIPR; format: cell-based; settings: HEK293 cells expressing hGIPR, 0.1% Casein, geometric mean; read-out: hGIPR cAMP Rel EC50 nM (SEM, n)
T2 sequence (P48546 22-466): T1 sequence (P48546 22-466)

[3] = molecular target: T3, human GLP-1R (Homo sapiens, UniProt P43220); assay: [125I]-GLP-1 binding (SPA), human GLP-1 receptor; set-up: expressed in transfected cells; crude membranes; settings: read-out: hGLP1R Ki, (nM) (SEM, n)
Procedure, shortened: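 Frozen cell pellets are lysed on ice in hypotonic Tris buffer, pH 7.5, homogenized, and centrifuged to a membrane pellet resuspended at about 1 to 3 mg/mL. Binding is then measured in HEPES-based buffer at pH 7.4, and curves are fitted to give IC50 and Ki.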

[4] = molecular target: human GLP-1 receptor (GLP-1R) (Homo sapiens, UniProt P43220); assay: cAMP pharmacological functional assay in presence of casein, hGLP-1R; format: cell-based; settings: HEK293 cells expressing hGLP-1R, 0.1% Casein, geometric mean; read-out: hGLP1R cAMP Rel EC50 nM (SEM, n)
[5] = molecular target: T3, human GLP-1R; assay: GLP-1R HEK293 cell membrane [35S]GTPγS binding assay; format: biochemical; set-up: expressed in transfected cells; host or cells: HEK293 cells expressing human GLP-1R; membranes; settings: HEK293 cell membranes expressing human GLP-1R, [35S]GTPγS binding; read-out: hGLP1R GTPgS Rel EC50 nM (SEM, n)
Procedure, shortened: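 Membranes from HEK293 cells expressing the receptor incubated with peptide and […] [35S]GTPγS in HEPES pH 7.4 buffer with NaCl, MgCl2, saponin and BSA, 30 min at room temperature. Gαs-bound label captured by anti-Gαs antibody/SPA beads and counted; EC50 from four-parameter logistic fit.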

[6] = molecular target: T4, human Gcg receptor (Homo sapiens, UniProt P47871); assay: [125I]-Glucagon binding (SPA), human Gcg receptor; settings: read-out: hGLcgR Ki, nM (SEM, n)
T4 construct: expressed in transfected cells; crude membranes
Procedure, shortened: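 Cell pellets were lysed in hypotonic Tris buffer, pH 7.5, homogenized, and spun at low then high speed to give crude membranes. Ki was derived from the fitted IC50.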

[7] = molecular target: T3, human GLP-1R; assay: GLP-1R CHO cell β-arrestin recruitment assay; format: cell-based; set-up: host or cells: CHO-K1 PathHunter cells, assay-ready frozen; settings: for EC50: CHO-K1 cells, PathHunter β-arrestin-2 recruitment, 0.1% casein, read-out: hGLP1R B-Arrestin2 Rel EC50 uM (SEM, n); for hGLP1R B-Arrestin2 % Top: normalized to GLP-1 maximum control
Procedure, shortened: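 PathHunter CHO-K1 cells with ProLink-tagged human GLP-1R and enzyme-acceptor-tagged β-arrestin-2 treated with serially diluted peptides in assay buffer containing 0.1% hydrolyzed casein, 90 min at 37 °C.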

T3 sequence (P43220 24-463): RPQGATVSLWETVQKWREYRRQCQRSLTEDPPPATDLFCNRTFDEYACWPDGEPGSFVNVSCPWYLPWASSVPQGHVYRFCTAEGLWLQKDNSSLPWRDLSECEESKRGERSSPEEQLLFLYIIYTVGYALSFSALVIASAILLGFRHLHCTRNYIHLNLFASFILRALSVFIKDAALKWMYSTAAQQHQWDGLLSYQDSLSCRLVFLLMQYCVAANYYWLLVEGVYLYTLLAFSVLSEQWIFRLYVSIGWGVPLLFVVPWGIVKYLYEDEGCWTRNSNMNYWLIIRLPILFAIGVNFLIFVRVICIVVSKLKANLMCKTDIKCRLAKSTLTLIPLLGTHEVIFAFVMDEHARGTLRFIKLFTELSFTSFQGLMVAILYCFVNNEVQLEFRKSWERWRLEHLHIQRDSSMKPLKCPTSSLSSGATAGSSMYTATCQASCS
human GLP-1 receptor (GLP-1R), sequence (P43220 24-463): as above
T4 sequence (P47871 26-477): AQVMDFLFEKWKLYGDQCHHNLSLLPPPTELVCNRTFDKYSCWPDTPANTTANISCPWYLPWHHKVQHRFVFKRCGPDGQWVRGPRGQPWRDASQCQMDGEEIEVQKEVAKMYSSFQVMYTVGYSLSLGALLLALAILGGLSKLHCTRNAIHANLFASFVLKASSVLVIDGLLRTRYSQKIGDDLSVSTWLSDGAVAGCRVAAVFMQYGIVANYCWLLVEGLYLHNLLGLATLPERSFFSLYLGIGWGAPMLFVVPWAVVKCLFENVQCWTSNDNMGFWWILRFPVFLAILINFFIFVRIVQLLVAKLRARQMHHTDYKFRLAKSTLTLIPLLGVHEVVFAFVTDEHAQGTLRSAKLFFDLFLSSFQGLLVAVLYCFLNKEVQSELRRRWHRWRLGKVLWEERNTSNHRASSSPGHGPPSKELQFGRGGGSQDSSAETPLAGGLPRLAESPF

| Structure (SMILES) | Ki [1] [nM] | EC50 [2] [nM] | Ki [3] [nM] | EC50 [4] [nM] | EC50 [5] [nM] | Ki [6] [nM] | EC50 [7] [µM] | hGLP1R B-Arrestin2 % Top [7] [%] |
| --- | --- | --- | --- | --- | --- | --- | --- | --- |
| CC[C@H](C)[C@H](NC(=O)[C@H](CC(C)C)NC(=O)[C@H](Cc1ccc(O)cc1)NC(=O)[C@H](CCC(=O)O)NC(=O)[C@@H](NC(=O)[C@H](Cc1ccccc1)NC(=O)[C@H](C)NC(=O)C(C)(C)NC(=O)[C@H](CCC(N)=O)NC(=O)[C@H](C)NC(=O)[C@H](CCCCNC(=O)COCCOCCNC(=O)COCCOCCNC(=O)CC[C@H](NC(=O)CCCCCCCCCCCCCCCCCCC(=O)O)C(=O)O)NC(=O)[C@H](CCC(=O)O)NC(=O)[C@H](CC(=O)O)NC(=O)[C@H](CC(C)C)NC(=O)[C@](C)(CC(C)C)NC(=O)[C@@H](NC(=O)[C@H](CO)NC(=O)[C@H](Cc1ccc(O)cc1)NC(=O)[C@H](CC(=O)O)NC(=O)[C@H](CO)NC(=O)[C@@H](NC(=O)[C@H](Cc1ccccc1)NC(=O)[C@@H](NC(=O)CNC(=O)[C@H](CCC(=O)O)NC(=O)C(C)(C)NC(=O)[C@H](N)Cc1ccc(O)cc1)[C@@H](C)O)[C@@H](C)O)[C@@H](C)CC)[C@@H](C)CC)C(=O)N[C@@H](C)C(=O)NCC(=O)NCC(=O)N1CCC[C@H]1C(=O)N[C@@H](CO)C(=O)N[C@@H](CO)C(=O)NCC(=O)N[C@@H](C)C(=O)N1CCC[C@H]1C(=O)N1CCC[C@H]1C(=O)N1CCC[C@H]1C(=O)N[C@@H](CO)C(N)=O [Example 341] (H-[dY][Aib]EGTFTSDYSI[αMeL]LDEK([AEEA-AEEA-γGlu-C20 diacid])AQ[Aib]AFIEYLIAGGPSSGAPPPS-NH2; N-terminus assumed) | 0.0559 | 0.238 | 6.49 | 0.373 | 0.496 | 39.7 | 0.0188 | 21.9 |
| CC[C@H](C)[C@H](NC(=O)[C@H](CC(C)C)NC(=O)[C@H](Cc1ccc(O)cc1)NC(=O)[C@H](CCC(=O)O)NC(=O)[C@@H](NC(=O)[C@H](Cc1ccccc1)NC(=O)[C@H](CCC(=O)O)NC(=O)C(C)(C)NC(=O)[C@H](CCC(N)=O)NC(=O)[C@H](C)NC(=O)[C@H](CCCCNC(=O)COCCOCCNC(=O)COCCOCCNC(=O)CC[C@H](NC(=O)CCCCCCCCCCCCCCCCCCC(=O)O)C(=O)O)NC(=O)[C@H](CCC(=O)O)NC(=O)[C@H](CC(=O)O)NC(=O)[C@H](CC(C)C)NC(=O)[C@](C)(CC(C)C)NC(=O)[C@@H](NC(=O)[C@H](CO)NC(=O)[C@H](Cc1ccc(O)cc1)NC(=O)[C@H](CC(=O)O)NC(=O)[C@H](CO)NC(=O)[C@@H](NC(=O)[C@H](Cc1ccccc1)NC(=O)[C@@H](NC(=O)CNC(=O)[C@H](CCC(=O)O)NC(=O)C(C)(C)NC(=O)[C@H](N)Cc1ccc(O)cc1)[C@@H](C)O)[C@@H](C)O)[C@@H](C)CC)[C@@H](C)CC)C(=O)N[C@@H](C)C(=O)NCC(=O)NCC(=O)N1CCC[C@H]1C(=O)N[C@@H](CO)C(=O)N[C@@H](CO)C(=O)NCC(=O)N[C@@H](C)C(=O)N1CCC[C@H]1C(=O)N1CCC[C@H]1C(=O)N1CCC[C@H]1C(=O)N[C@@H](CO)C(N)=O [Example 342] (H-[dY][Aib]EGTFTSDYSI[αMeL]LDEK([AEEA-AEEA-γGlu-C20 diacid])AQ[Aib]EFIEYLIAGGPSSGAPPPS-NH2; N-terminus assumed) | 0.129 | 0.159 | 15.4 | 0.127 | 0.414 | > 1000 | 0.035 | 20.7 |
| CC[C@H](C)[C@H](NC(=O)[C@H](CC(C)C)NC(=O)[C@H](Cc1ccc(O)cc1)NC(=O)[C@@H](CCC(=O)O)NC(=O)[C@@H](NC(=O)[C@H](Cc1ccccc1)NC(=O)[C@H](C)NC(=O)C(C)(C)NC(=O)[C@H](CCC(N)=O)NC(=O)[C@H](C)NC(=O)[C@H](CCCCNC(=O)COCCOCCNC(=O)COCCOCCNC(=O)CC[C@H](NC(=O)CCCCCCCCCCCCCCCCCCC(=O)O)C(=O)O)NC(=O)[C@H](CCC(=O)O)NC(=O)[C@H](CC(=O)O)NC(=O)[C@H](CC(C)C)NC(=O)[C@](C)(CC(C)C)NC(=O)[C@@H](NC(=O)[C@H](CO)NC(=O)[C@H](Cc1ccc(O)cc1)NC(=O)[C@H](CC(=O)O)NC(=O)[C@H](CO)NC(=O)[C@@H](NC(=O)[C@H](Cc1ccccc1)NC(=O)[C@@H](NC(=O)CNC(=O)[C@H](CCC(=O)O)NC(=O)C(C)(C)NC(=O)[C@@H](N)Cc1ccc(O)cc1)[C@@H](C)O)[C@@H](C)O)[C@@H](C)CC)[C@@H](C)CC)C(=O)N[C@@H](C)C(=O)NCC(=O)NCC(=O)N1CCC[C@H]1C(=O)N[C@@H](CO)C(=O)N[C@@H](CO)C(=O)NCC(=O)N[C@@H](C)C(=O)N1CCC[C@H]1C(=O)N1CCC[C@H]1C(=O)N1CCC[C@H]1C(=O)N[C@@H](CO)C(N)=O [Example 343] (H-Y[Aib]EGTFTSDYSI[αMeL]LDEK([AEEA-AEEA-γGlu-C20 diacid])AQ[Aib]AFI[dE]YLIAGGPSSGAPPPS-NH2) | 0.0374 | 0.0422 | 13.3 | 0.124 | 0.522 | > 1070 | 0.0455 | 41.4 |
| CC[C@H](C)[C@H](NC(=O)[C@H](CC(C)C)NC(=O)[C@H](Cc1ccc(O)cc1)NC(=O)[C@H](CCC(=O)O)NC(=O)[C@@H](NC(=O)[C@H](Cc1ccccc1)NC(=O)[C@H](CC(=O)O)NC(=O)C(C)(C)NC(=O)[C@H](CCC(N)=O)NC(=O)[C@H](C)NC(=O)[C@H](CCCCNC(=O)COCCOCCNC(=O)COCCOCCNC(=O)CC[C@H](NC(=O)CCCCCCCCCCCCCCCCCCC(=O)O)C(=O)O)NC(=O)[C@H](CCC(=O)O)NC(=O)[C@H](CC(=O)O)NC(=O)[C@H](CC(C)C)NC(=O)[C@](C)(CC(C)C)NC(=O)[C@@H](NC(=O)[C@H](CO)NC(=O)[C@H](Cc1ccc(O)cc1)NC(=O)[C@H](CC(=O)O)NC(=O)[C@H](CO)NC(=O)[C@@H](NC(=O)[C@H](Cc1ccccc1)NC(=O)[C@@H](NC(=O)CNC(=O)[C@H](CCC(=O)O)NC(=O)C(C)(C)NC(=O)[C@@H](N)Cc1ccc(O)cc1)[C@@H](C)O)[C@@H](C)O)[C@@H](C)CC)[C@@H](C)CC)C(=O)N[C@@H](C)C(=O)NCC(=O)NCC(=O)N1CCC[C@H]1C(=O)N[C@@H](CO)C(=O)N[C@@H](CO)C(=O)NCC(=O)N[C@@H](C)C(=O)N1CCC[C@H]1C(=O)N1CCC[C@H]1C(=O)N1CCC[C@H]1C(=O)N[C@@H](CO)C(N)=O [Example 344] (H-Y[Aib]EGTFTSDYSI[αMeL]LDEK([AEEA-AEEA-γGlu-C20 diacid])AQ[Aib]DFIEYLIAGGPSSGAPPPS-NH2) | 0.0507 | 0.0433 | 14.8 | 0.044 | 0.423 | > 1080 | 0.0343 | 46 |
